Source: paper PMC8149661, “Small-molecule inhibition of Lats kinases may promote Yap-dependent proliferation in postmitotic mammalian tissues” (Nature Communications, 2021)
pIC50: −log10 of the molar value.

How the values were obtained:
Assay in all cases: biochemical
DYRK1B = DYRK1B (Homo sapiens, UniProt Q9Y463); settings: read-out: % inhibition
PKCepsilon = molecular target: T1, PKCepsilon (Homo sapiens, UniProt Q02156); set-up: functional kinase inhibition IC50 (Reaction Biology)
T1 construct: gene PRKCE

ROCK1 [1] = molecular target: T2, ROCK1 (Homo sapiens, UniProt Q13464); set-up: functional kinase inhibition IC50 (Reaction Biology)
T2 sequence (Q13464 whole entry): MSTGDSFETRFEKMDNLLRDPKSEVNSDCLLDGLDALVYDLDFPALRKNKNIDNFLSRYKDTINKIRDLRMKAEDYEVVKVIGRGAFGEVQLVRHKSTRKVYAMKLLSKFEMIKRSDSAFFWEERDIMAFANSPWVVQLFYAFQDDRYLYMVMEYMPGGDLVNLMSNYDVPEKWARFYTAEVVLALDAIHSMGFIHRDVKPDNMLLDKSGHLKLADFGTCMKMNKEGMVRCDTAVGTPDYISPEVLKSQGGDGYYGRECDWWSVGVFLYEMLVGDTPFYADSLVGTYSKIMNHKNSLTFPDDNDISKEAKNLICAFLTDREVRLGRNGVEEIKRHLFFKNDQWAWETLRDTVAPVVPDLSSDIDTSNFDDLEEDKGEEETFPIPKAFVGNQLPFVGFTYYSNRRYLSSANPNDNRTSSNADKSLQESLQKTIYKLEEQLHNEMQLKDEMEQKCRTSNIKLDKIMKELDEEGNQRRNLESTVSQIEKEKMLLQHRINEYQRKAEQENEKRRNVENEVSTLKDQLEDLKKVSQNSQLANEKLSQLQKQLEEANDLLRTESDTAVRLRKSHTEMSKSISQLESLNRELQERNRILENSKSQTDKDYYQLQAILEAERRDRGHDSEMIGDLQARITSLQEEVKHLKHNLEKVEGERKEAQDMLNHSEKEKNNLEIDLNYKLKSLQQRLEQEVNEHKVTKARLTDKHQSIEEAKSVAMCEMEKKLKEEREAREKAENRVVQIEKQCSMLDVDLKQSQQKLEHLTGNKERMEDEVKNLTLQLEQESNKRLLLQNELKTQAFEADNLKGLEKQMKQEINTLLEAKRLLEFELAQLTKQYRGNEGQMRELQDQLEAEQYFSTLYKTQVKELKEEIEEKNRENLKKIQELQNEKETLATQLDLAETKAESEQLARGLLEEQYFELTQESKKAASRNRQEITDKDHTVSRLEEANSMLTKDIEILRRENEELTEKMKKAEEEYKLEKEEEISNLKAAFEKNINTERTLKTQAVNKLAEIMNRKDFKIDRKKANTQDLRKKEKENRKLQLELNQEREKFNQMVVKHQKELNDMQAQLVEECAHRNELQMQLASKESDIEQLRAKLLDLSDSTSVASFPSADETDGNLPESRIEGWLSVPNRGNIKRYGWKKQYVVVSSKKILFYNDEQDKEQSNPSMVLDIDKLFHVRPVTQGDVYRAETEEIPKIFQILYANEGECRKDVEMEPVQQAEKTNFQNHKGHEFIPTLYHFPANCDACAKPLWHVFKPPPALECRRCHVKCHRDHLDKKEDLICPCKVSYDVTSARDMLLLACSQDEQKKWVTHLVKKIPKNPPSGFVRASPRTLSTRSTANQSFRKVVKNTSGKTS

NDR1 = molecular target: T3, NDR1 (Homo sapiens, UniProt Q15208); set-up: functional kinase inhibition IC50 (Reaction Biology)
T3 construct: gene STK38

PKA = molecular target: T4, PKA (Homo sapiens, UniProt P17612); set-up: functional kinase inhibition IC50 (Reaction Biology)
T4 construct: gene PRKACA

CDK8 = CDK8 (Homo sapiens, UniProt P49336); settings: read-out: % inhibition
Sequence of CDK8 (P49336 whole entry): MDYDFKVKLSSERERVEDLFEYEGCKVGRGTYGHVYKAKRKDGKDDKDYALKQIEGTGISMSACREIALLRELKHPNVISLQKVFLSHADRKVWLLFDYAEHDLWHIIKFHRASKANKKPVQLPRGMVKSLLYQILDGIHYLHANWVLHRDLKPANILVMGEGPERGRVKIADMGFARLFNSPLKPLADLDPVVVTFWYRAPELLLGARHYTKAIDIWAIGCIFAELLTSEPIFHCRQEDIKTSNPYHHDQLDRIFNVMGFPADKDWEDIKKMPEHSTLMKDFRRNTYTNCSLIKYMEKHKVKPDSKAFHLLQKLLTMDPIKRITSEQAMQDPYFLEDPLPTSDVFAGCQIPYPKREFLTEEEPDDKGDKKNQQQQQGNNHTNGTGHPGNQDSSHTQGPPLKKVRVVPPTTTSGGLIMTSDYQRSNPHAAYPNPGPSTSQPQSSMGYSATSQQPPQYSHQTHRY

PRKX = PRKX (Homo sapiens, UniProt P51817); settings: read-out: % inhibition
Sequence of PRKX (P51817 whole entry): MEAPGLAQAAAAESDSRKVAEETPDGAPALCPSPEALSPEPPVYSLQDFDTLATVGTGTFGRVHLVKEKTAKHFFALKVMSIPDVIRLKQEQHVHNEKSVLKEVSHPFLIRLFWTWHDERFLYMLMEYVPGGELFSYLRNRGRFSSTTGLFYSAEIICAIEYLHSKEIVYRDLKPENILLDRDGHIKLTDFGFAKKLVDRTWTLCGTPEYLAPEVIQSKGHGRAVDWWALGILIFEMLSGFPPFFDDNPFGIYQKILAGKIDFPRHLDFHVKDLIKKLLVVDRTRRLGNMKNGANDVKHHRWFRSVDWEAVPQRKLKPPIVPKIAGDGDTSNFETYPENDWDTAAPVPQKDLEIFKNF

PRKG2 = PRKG2 (Homo sapiens, UniProt Q13237); settings: read-out: % inhibition
CDC42BPA = CDC42BPA (Homo sapiens, UniProt Q5VT25); settings: read-out: % inhibition
DMPK = DMPK (Homo sapiens, UniProt Q09013); settings: read-out: % inhibition
GSK3B = GSK3B (Homo sapiens, UniProt P49841); settings: read-out: % inhibition
TGFBR2 = TGFBR2 (Homo sapiens, UniProt P37173); settings: read-out: % inhibition
MAP4K4 = MAP4K4 (Homo sapiens, UniProt O95819); settings: read-out: % inhibition
PKN2 = PKN2 (Homo sapiens, UniProt Q16513); settings: read-out: % inhibition
PRKCH = PRKCH (Homo sapiens, UniProt P24723); settings: read-out: % inhibition
PRKCD = PRKCD (Homo sapiens, UniProt Q05655); settings: read-out: % inhibition
PAK4 = PAK4 (Homo sapiens, UniProt O96013); settings: read-out: % inhibition
CDC7 = CDC7 (Homo sapiens, UniProt O00311); settings: read-out: % inhibition
HIPK2 = HIPK2 (Homo sapiens, UniProt Q9H2X6); settings: read-out: % inhibition
Sequence of HIPK2 (Q9H2X6 whole entry): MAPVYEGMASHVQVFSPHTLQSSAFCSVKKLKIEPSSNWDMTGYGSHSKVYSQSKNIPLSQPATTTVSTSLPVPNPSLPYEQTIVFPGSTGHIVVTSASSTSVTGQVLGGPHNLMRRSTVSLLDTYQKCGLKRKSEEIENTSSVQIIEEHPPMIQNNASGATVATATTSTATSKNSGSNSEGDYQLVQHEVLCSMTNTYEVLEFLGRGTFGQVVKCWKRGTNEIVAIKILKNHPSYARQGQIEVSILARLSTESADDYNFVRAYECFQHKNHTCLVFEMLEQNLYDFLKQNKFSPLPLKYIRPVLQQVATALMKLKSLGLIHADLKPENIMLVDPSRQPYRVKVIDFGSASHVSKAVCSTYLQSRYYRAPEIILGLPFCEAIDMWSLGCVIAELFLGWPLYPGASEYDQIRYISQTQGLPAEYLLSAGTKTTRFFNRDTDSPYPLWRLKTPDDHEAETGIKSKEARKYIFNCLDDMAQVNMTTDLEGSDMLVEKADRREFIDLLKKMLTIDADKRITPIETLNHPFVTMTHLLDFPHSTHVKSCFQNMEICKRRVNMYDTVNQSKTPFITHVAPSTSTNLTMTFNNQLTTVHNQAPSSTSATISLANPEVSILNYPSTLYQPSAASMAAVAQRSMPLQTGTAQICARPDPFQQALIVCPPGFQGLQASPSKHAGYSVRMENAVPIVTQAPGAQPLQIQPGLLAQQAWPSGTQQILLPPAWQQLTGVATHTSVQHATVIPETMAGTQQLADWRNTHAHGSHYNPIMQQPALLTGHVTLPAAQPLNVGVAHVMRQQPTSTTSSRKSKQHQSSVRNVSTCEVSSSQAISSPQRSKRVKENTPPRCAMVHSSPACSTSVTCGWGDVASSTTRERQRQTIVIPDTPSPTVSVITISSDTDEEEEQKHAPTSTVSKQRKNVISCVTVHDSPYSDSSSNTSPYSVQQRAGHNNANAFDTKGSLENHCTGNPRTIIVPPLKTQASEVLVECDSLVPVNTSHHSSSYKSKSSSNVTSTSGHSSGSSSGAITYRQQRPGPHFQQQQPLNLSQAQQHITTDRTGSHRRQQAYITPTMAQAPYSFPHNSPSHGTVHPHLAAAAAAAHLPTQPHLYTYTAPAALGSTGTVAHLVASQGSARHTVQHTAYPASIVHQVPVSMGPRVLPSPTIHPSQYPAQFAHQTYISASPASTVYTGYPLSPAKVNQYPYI

HIPK1 = HIPK1 (Homo sapiens, UniProt Q86Z02); settings: read-out: % inhibition
Sequence of HIPK1 (Q86Z02 whole entry): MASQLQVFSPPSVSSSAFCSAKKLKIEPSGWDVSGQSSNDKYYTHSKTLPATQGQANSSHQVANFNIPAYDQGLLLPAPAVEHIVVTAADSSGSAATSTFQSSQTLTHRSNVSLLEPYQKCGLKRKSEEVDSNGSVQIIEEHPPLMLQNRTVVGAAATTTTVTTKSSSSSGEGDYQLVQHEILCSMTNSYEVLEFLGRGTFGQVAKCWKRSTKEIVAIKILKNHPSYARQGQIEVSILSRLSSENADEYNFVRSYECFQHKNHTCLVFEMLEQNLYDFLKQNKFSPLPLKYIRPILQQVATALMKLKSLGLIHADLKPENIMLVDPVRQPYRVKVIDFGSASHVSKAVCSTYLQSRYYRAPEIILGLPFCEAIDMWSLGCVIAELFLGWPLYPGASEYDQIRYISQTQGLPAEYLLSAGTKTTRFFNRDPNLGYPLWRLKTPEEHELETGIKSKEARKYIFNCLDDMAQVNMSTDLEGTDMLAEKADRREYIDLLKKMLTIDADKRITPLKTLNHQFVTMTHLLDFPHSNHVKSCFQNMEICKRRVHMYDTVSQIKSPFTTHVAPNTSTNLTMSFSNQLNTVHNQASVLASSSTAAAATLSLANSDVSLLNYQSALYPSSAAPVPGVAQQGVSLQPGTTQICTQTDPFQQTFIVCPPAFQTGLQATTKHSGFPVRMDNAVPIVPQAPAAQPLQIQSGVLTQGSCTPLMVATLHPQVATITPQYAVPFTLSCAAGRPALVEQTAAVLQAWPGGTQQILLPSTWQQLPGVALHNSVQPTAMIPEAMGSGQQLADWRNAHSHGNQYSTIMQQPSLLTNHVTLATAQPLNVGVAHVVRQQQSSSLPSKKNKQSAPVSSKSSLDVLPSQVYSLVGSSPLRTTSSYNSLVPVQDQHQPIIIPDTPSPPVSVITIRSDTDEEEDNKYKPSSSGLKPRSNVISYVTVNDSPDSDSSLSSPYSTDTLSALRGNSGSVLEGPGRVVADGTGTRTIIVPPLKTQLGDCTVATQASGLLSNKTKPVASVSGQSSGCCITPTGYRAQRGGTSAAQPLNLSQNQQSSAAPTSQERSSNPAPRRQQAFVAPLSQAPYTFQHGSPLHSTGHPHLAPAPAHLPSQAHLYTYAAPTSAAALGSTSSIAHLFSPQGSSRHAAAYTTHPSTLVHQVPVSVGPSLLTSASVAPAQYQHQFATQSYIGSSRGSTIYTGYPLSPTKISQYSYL

CLK1 = CLK1 (Homo sapiens, UniProt P49759); settings: read-out: % inhibition
Sequence of CLK1 (P49759 whole entry): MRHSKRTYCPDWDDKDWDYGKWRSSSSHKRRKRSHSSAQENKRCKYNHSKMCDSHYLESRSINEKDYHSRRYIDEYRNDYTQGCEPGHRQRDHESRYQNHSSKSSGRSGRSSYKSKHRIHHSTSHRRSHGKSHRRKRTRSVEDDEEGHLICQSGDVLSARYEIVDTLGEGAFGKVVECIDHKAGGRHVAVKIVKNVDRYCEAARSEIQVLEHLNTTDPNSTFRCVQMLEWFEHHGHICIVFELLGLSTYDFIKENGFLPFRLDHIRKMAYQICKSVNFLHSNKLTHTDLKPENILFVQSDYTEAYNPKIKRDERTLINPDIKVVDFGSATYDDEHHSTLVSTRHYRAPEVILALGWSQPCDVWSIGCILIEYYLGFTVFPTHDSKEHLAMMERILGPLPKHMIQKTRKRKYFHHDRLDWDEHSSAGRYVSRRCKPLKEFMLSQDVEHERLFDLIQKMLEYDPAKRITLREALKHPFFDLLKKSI

PKN1 = PKN1 (Homo sapiens, UniProt Q16512); settings: read-out: % inhibition
MAP3K7 = MAP3K7 (Homo sapiens, UniProt O43318); settings: read-out: % inhibition
ROCK1 [2] = molecular target: T2, ROCK1; settings: read-out: % inhibition
CLK2 = CLK2 (Homo sapiens, UniProt P49760); settings: read-out: % inhibition
CLK4 = CLK4 (Homo sapiens, UniProt Q9HAZ1); settings: read-out: % inhibition
DAPK3 = DAPK3 (Homo sapiens, UniProt O43293); settings: read-out: % inhibition
PASK = PASK (Homo sapiens, UniProt Q96RG2); settings: read-out: % inhibition
ROCK2 = ROCK2 (Homo sapiens, UniProt O75116); settings: read-out: % inhibition
BMP2K = BMP2K (Homo sapiens, UniProt Q9NSY1); settings: read-out: % inhibition
LRRK2 = LRRK2 (Homo sapiens, UniProt Q5S007); settings: read-out: % inhibition
HIPK3 = HIPK3 (Homo sapiens, UniProt Q9H422); settings: read-out: % inhibition
CDK19 = CDK19 (Homo sapiens, UniProt Q9BWU1); settings: read-out: % inhibition
PRKCQ = PRKCQ (Homo sapiens, UniProt Q04759); settings: read-out: % inhibition
DYRK1A = DYRK1A (Homo sapiens, UniProt Q13627); settings: read-out: % inhibition
PRKACB = PRKACB (Homo sapiens, UniProt P22694); settings: read-out: % inhibition
TAOK1 = TAOK1 (Homo sapiens, UniProt Q7L7X3); settings: read-out: % inhibition
CDC42BPG = CDC42BPG (Homo sapiens, UniProt Q6DT37); settings: read-out: % inhibition

inhibition at 1 µM (DYRK1B): 81.5%
pIC50 (PKCepsilon): 7.85
pIC50 (ROCK1 [1]): 7.06
pIC50 (NDR1): 6.00
pIC50 (PKA): 7.22
inhibition at 1 µM (CDK8): 88.8%
inhibition at 1 µM (PRKX): 88.1%
inhibition at 1 µM (PRKG2): 79.1%
inhibition at 1 µM (CDC42BPA): 97.2%
inhibition at 1 µM (DMPK): 97.9%
inhibition at 1 µM (GSK3B): 92.7%
inhibition at 1 µM (TGFBR2): 81.3%
inhibition at 1 µM (MAP4K4): 77.5%
inhibition at 1 µM (PKN2): 89.7%
inhibition at 1 µM (PRKCH): 90.4%
inhibition at 1 µM (PRKCD): 78%
inhibition at 1 µM (PAK4): 83.4%
inhibition at 1 µM (CDC7): 99.1%
inhibition at 1 µM (HIPK2): 94.2%
inhibition at 1 µM (HIPK1): 86.1%
inhibition at 1 µM (CLK1): 78.1%
inhibition at 1 µM (PKN1): 77.7%
inhibition at 1 µM (MAP3K7): 74%
inhibition at 1 µM (ROCK1 [2]): 79.2%
inhibition at 1 µM (CLK2): 92.8%
inhibition at 1 µM (CLK4): 102%
inhibition at 1 µM (DAPK3): 77.1%
inhibition at 1 µM (PASK): 85.8%
inhibition at 1 µM (ROCK2): 84.1%
inhibition at 1 µM (BMP2K): 86.3%
inhibition at 1 µM (LRRK2): 81.3%
inhibition at 1 µM (HIPK3): 95.8%
inhibition at 1 µM (CDK19): 90.2%
inhibition at 1 µM (PRKCQ): 99.2%
inhibition at 1 µM (DYRK1A): 85.8%
inhibition at 1 µM (PRKACB): 92.9%
inhibition at 1 µM (TAOK1): 76.4%
inhibition at 1 µM (CDC42BPG): 83.7%
SMILES: O=C(N=c1sccn1Cc1ccccc1)c1c[nH]c2ncccc12 [TRULI, N-(3-benzylthiazol-2(3H)-ylidene)-1H-pyrrolo[2,3-b]pyridine-3-carboxamide]
